Read-outs that look alike come from different tables or passages of the source.
What was measured:
[1] = human clinical trial, pharmacokinetics of Tablet Formulation 6 and Tablet Formulation 7, fasted and fed; details: in vivo, GM; for AUC(0-t): read-out: AUC0-24 hr
[2] = solubility in simulated fasted-state intestinal fluid; format: physicochemical; details: fassif
Description: (§1) Even in its amorphous state, the apparent solubility of neat amorphous Compound […] in simulated fasted-state intestinal fluid is 50 μg/mL after two hours of equilibration. In order to enable absorption of Compound III, solid dispersion formulations of Compound III were formulated at a drug loading less than or equal to 40% in combination with absorption-enhancing polymers and surfactants as described in U.S. Provisional Patent Application No. 61/936,019, filed Feb. 5, 2014; PCT International Patent Application Nos. PCT/US2015/014195 and PCT/US2015/014201, filed Feb. 3, 2015.

[3] = log D of Compound III; format: physicochemical; details: pH=7
Description: as §1

[4] = administered as Tablet Formulation 6, single dose of two tablets, Fasted
[5] = administered as Tablet Formulation 6, single dose of two tablets, Fed (High-Fat Meal)
[6] = administered as Tablet Formulation 7, single dose of two tablets, Fasted
[7] = administered as Tablet Formulation 7, single dose of two tablets, Fed (High-Fat Meal)
[8] = oral, administered as Tablet Formulation 6, single dose of two tablets, Fasted
[9] = oral, administered as Tablet Formulation 6, single dose of two tablets, Fed (High-Fat Meal)
[10] = oral, administered as Tablet Formulation 7, single dose of two tablets, Fasted
[11] = oral, administered as Tablet Formulation 7, single dose of two tablets, Fed (High-Fat Meal)

Compound | AUC(0-inf) [1, 8] [µM·h] | Cmax [1, 8] [nM] | AUC(0-t) [1, 8] [µM·h] | AUC(0-inf) [1, 9] [µM·h] | Cmax [1, 9] [nM] | AUC(0-t) [1, 9] [µM·h] | AUC(0-inf) [1, 10] [µM·h] | Cmax [1, 10] [nM] | AUC(0-t) [1, 10] [µM·h] | AUC(0-inf) [1, 11] [µM·h] | Cmax [1, 11] [nM] | AUC(0-t) [1, 11] [µM·h] | also measured
CC(C)OC(=O)[C@@H](C)NP(=O)(OC[C@H]1O[C@@H](n2ccc(=O)[nH]c2=O)[C@](C)(Cl)[C@@H]1O)Oc1ccccc1 (stereo partly drawn) [Compound I, (2R)-isopropyl 2-(((((2R,3R,4R,5R)-4-chloro-5-(2,4-dioxo-3,4-dihydropyrimidin-1(2H)-yl)-3-hydroxy-4-methyltetrahydrofuran-2-yl)methoxy)(phenoxy)phosphoryl)amino)propanoate] |  |  |  |  |  |  |  |  |  |  |  |  | AUC(0-inf) [1, 4]: 2.73 µM·h; Cmax [1, 4]: 900 nM; AUC(0-t) [1, 4]: 2.63 µM·h; AUC(0-inf) [1, 5]: 3.91 µM·h; Cmax [1, 5]: 1420 nM; AUC(0-t) [1, 5]: 3.85 µM·h; AUC(0-inf) [1, 6]: 3.01 µM·h; Cmax [1, 6]: 897 nM; AUC(0-t) [1, 6]: 2.91 µM·h; AUC(0-inf) [1, 7]: 4.08 µM·h; Cmax [1, 7]: 1740 nM; AUC(0-t) [1, 7]: 4.36 µM·h; solubility at 2 h ([2]; thermodynamic from solid, after two hours of equilibration, read-out: apparent solubility of neat amorphous compound): 50 µg/mL
COC(=O)N[C@H](C(=O)N1CCC[C@H]1c1ncc(-c2cc(F)c3c(c2)O[C@@H](c2cnc(C4CC4)s2)n2c-3cc3cc(-c4cnc([C@@H]5CCCN5C(=O)[C@@H](NC(=O)OC)C(C)C)[nH]4)ccc32)[nH]1)C(C)C [Compound II, dimethyl ((2S,2′S)-((2S,2′S)-2,2′-(5,5′-((S)-6-(2-cyclopropylthiazol-5-yl)-1-fluoro-6H-benzo[5,6][1,3]oxazino[3,4-a]indole-3,10-diyl)bis(1H-imidazole-5,2-diyl))bis(pyrrolidine-2,1-diyl))bis(3-methyl-1-oxobutane-2,1-diyl))dicarbamate] | 0.942 | 57 | 0.572 | 1.11 | 68.1 | 0.658 | 1.31 | 77.2 | 0.783 | 1.2 | 78.7 | 0.716 | 
C=C[C@@H]1C[C@]1(NC(=O)[C@@H]1C[C@@H]2CN1C(=O)[C@H](C(C)(C)C)NC(=O)O[C@@H]1C[C@H]1CCCCCc1nc3ccc(OC)cc3nc1O2)C(=O)NS(=O)(=O)C1CC1 [Compound III, (1aR,5S,8S,10R,22aR)—N-[(1R,2S)-1-[(cyclopropylsulfonamido)carbonyl]-2-ethenylcyclopropyl]-14-methoxy-5-(2-methylpropan-2-yl)-3,6-dioxo-1,1a,3,4,5,6,9,10,18,19,20,21,22,22a-tetradecahydro-8H-7,10-methanocyclopropa[18,19][1,10,3,6]dioxadiazacyclononadecino[11,12-b]quinoxaline-8-carboxamide hydrate] | 0.508 | 25.6 | 0.218 | 0.628 | 44.3 | 0.33 | 0.598 | 31.2 | 0.285 | 0.733 | 61.2 | 0.38 | logD [3]: ~3; solubility [2]: < 7 µg/mL
